System: BJeLR
Experiment: Modulatory profiling: Alamar Blue viability, lethal compound cotreated with death modulator (EC50, AUC); on AUC, modulator BJ.3MA: reference of the scale not given here; on AUC, modulator BJ.ALLN: reference of the scale not given here; on AUC, modulator BJ.Boc D: reference of the scale not given here; on AUC, modulator BJ.CHX: reference of the scale not given here; on AUC, modulator BJ.Co2+: reference of the scale not given here; on AUC, modulator BJ.DPQ: reference of the scale not given here; on AUC, modulator BJ.Gd3+: reference of the scale not given here; on AUC, modulator BJ.LNAME: reference of the scale not given here; on AUC, modulator BJ.NAD+: reference of the scale not given here; on AUC, modulator BJ.NMMA: reference of the scale not given here; on AUC, modulator BJ.Nec-1: reference of the scale not given here; on AUC, modulator BJ.Pepstatin: reference of the scale not given here; on AUC, modulator BJ.TLCK: reference of the scale not given here
Format: cell-based, human
Parameters: AUC, modulator BJ.Gd3+ / AUC, modulator BJ.LNAME / AUC, modulator BJ.Lmin / AUC, modulator BJ.3MA / AUC, modulator BJ.ALLN / AUC, modulator BJ.Boc D / AUC, modulator BJ.CHX / AUC, modulator BJ.Co2+ / AUC, modulator BJ.Nec-1 / AUC, modulator BJ.Pepstatin / AUC, modulator BJ.TLCK / AUC, modulator BJ.atoc / AUC, modulator BJ.trolox / AUC, modulator BJ.zVAD: unit not given beside the values
Settings: for AUC, modulator BJ.3MA / AUC, modulator BJ.ALLN / AUC, modulator BJ.Boc D / AUC, modulator BJ.CHX / AUC, modulator BJ.Co2+ / AUC, modulator BJ.DPQ / AUC, modulator BJ.Gd3+ / AUC, modulator BJ.LNAME / AUC, modulator BJ.Lmin/NAD+ / AUC, modulator BJ.Lmin / AUC, modulator BJ.NAD+ / AUC, modulator BJ.NMMA / AUC, modulator BJ.Nec-1 / AUC, modulator BJ.Pepstatin / AUC, modulator BJ.TLCK / AUC, modulator BJ.atoc / AUC, modulator BJ.trolox / AUC, modulator BJ.zVAD: BJeLR cells, modulatory profile value (AUC); for AUC, modulator BJ.3MA: lethal compound cotreated with modulator 3MA; for AUC, modulator BJ.ALLN: lethal compound cotreated with modulator ALLN; for AUC, modulator BJ.Boc D: lethal compound cotreated with modulator Boc D; for AUC, modulator BJ.CHX: lethal compound cotreated with modulator CHX; for AUC, modulator BJ.Co2+: lethal compound cotreated with modulator Co2+; for AUC, modulator BJ.DPQ: lethal compound cotreated with modulator DPQ; for AUC, modulator BJ.Gd3+: lethal compound cotreated with modulator Gd3+; for AUC, modulator BJ.LNAME: lethal compound cotreated with modulator LNAME; for AUC, modulator BJ.Lmin/NAD+: lethal compound cotreated with modulator Lmin/NAD+; for AUC, modulator BJ.Lmin: lethal compound cotreated with modulator Lmin; for AUC, modulator BJ.NAD+: lethal compound cotreated with modulator NAD+; for AUC, modulator BJ.NMMA: lethal compound cotreated with modulator NMMA; for AUC, modulator BJ.Nec-1: lethal compound cotreated with modulator Nec-1; for AUC, modulator BJ.Pepstatin: lethal compound cotreated with modulator Pepstatin; for AUC, modulator BJ.TLCK: lethal compound cotreated with modulator TLCK; for AUC, modulator BJ.atoc: lethal compound cotreated with modulator atoc; for AUC, modulator BJ.trolox: lethal compound cotreated with modulator trolox; for AUC, modulator BJ.zVAD: lethal compound cotreated with modulator zVAD; for EC50: Homo sapiens, BJeLR, 48 h

Structure (SMILES): CCCCNc1cc(C)nc(NCc2ccccc2)n1 [CIL18]
- AUC, modulator BJ.3MA: 0.0654
- AUC, modulator BJ.ALLN: −0.04507
- AUC, modulator BJ.Boc D: −0.01841
- AUC, modulator BJ.CHX: −0.01582
- AUC, modulator BJ.Co2+: 0.08943
- AUC, modulator BJ.DPQ: −0.01318
- AUC, modulator BJ.Gd3+: −0.01659
- AUC, modulator BJ.LNAME: −0.01628
- AUC, modulator BJ.Lmin/NAD+: −0.0502
- AUC, modulator BJ.Lmin: −0.05505
- AUC, modulator BJ.NAD+: 0.00749
- AUC, modulator BJ.NMMA: −0.02371
- AUC, modulator BJ.Nec-1: 0.0226
- AUC, modulator BJ.Pepstatin: 0.04724
- AUC, modulator BJ.TLCK: −0.03824
- AUC, modulator BJ.atoc: −0.0004228
- AUC, modulator BJ.trolox: 0.0395
- AUC, modulator BJ.zVAD: −0.005402

Structure (SMILES): O=c1c(N2CCCC2)c(Cl)cnn1-c1ccccc1 [CIL20]
- AUC, modulator BJ.3MA: 0.055
- AUC, modulator BJ.ALLN: −0.09098
- AUC, modulator BJ.Boc D: −0.06373
- AUC, modulator BJ.CHX: −0.009677
- AUC, modulator BJ.Co2+: 0.04763
- AUC, modulator BJ.DPQ: −0.02696
- AUC, modulator BJ.Gd3+: 0.04266
- AUC, modulator BJ.LNAME: −0.001747
- AUC, modulator BJ.Lmin/NAD+: −0.03734
- AUC, modulator BJ.Lmin: −0.02603
- AUC, modulator BJ.NAD+: 0.03043
- AUC, modulator BJ.NMMA: −0.01046
- AUC, modulator BJ.Nec-1: 0.0115
- AUC, modulator BJ.Pepstatin: −0.002516
- AUC, modulator BJ.TLCK: −0.00743
- AUC, modulator BJ.atoc: −0.005113
- AUC, modulator BJ.trolox: 0.02308
- AUC, modulator BJ.zVAD: −0.04036

Structure (SMILES): Cc1cccc(-n2ncc(Cl)c(Cl)c2=O)c1 [CIL22]
- AUC, modulator BJ.3MA: −0.04329
- AUC, modulator BJ.ALLN: −0.03232
- AUC, modulator BJ.Boc D: −0.0406
- AUC, modulator BJ.CHX: 0.1136
- AUC, modulator BJ.Co2+: 0.07615
- AUC, modulator BJ.DPQ: 0.005752
- AUC, modulator BJ.Gd3+: 0.005899
- AUC, modulator BJ.LNAME: 0.0123
- AUC, modulator BJ.Lmin/NAD+: 0.07278
- AUC, modulator BJ.Lmin: 0.002645
- AUC, modulator BJ.NAD+: −0.005902
- AUC, modulator BJ.NMMA: −0.007412
- AUC, modulator BJ.Nec-1: −0.01633
- AUC, modulator BJ.Pepstatin: 0.02724
- AUC, modulator BJ.TLCK: −0.01321
- AUC, modulator BJ.atoc: 0.01015
- AUC, modulator BJ.trolox: 0.0184
- AUC, modulator BJ.zVAD: 0.03093

Structure (SMILES): Cc1ccc(O)c(/N=C/C=C/c2cccc(Br)c2)c1 [CIL27]
- AUC, modulator BJ.3MA: 0.0403
- AUC, modulator BJ.ALLN: −0.06604
- AUC, modulator BJ.Boc D: −0.08049
- AUC, modulator BJ.CHX: 0.1399
- AUC, modulator BJ.Co2+: 0.05931
- AUC, modulator BJ.DPQ: 0.0171
- AUC, modulator BJ.Gd3+: −0.02406
- AUC, modulator BJ.LNAME: −0.04381
- AUC, modulator BJ.Lmin/NAD+: 0.02365
- AUC, modulator BJ.Lmin: 0.01472
- AUC, modulator BJ.NAD+: −0.01357
- AUC, modulator BJ.NMMA: 0.009474
- AUC, modulator BJ.Nec-1: −0.05452
- AUC, modulator BJ.Pepstatin: 0.006509
- AUC, modulator BJ.TLCK: −0.03065
- AUC, modulator BJ.atoc: 0.002404
- AUC, modulator BJ.trolox: 0.0004949
- AUC, modulator BJ.zVAD: −0.003575

Structure (SMILES): CC(C)=CCCC1=CCC(CNCCCN(C)C)C(C)C1 (centres unmarked) [CIL28]
- AUC, modulator BJ.3MA: 0.0433
- AUC, modulator BJ.ALLN: −0.02065
- AUC, modulator BJ.Boc D: −0.02549
- AUC, modulator BJ.CHX: −0.01119
- AUC, modulator BJ.Co2+: 0.03417
- AUC, modulator BJ.DPQ: 0.009235
- AUC, modulator BJ.Gd3+: −0.07741
- AUC, modulator BJ.LNAME: −0.04858
- AUC, modulator BJ.Lmin/NAD+: −0.02578
- AUC, modulator BJ.Lmin: −0.053
- AUC, modulator BJ.NAD+: 0.06231
- AUC, modulator BJ.NMMA: 0.000264
- AUC, modulator BJ.Nec-1: 0.005737
- AUC, modulator BJ.Pepstatin: 0.06166
- AUC, modulator BJ.TLCK: −0.09417
- AUC, modulator BJ.atoc: 0.05295
- AUC, modulator BJ.trolox: 0.06039
- AUC, modulator BJ.zVAD: 0.006234

Structure (SMILES): O=C(/C=C/c1cccc(NC(=O)c2cccs2)c1)c1ccccc1 [CIL33]
- AUC, modulator BJ.3MA: 0.06199
- AUC, modulator BJ.ALLN: −0.1124
- AUC, modulator BJ.Boc D: −0.03229
- AUC, modulator BJ.CHX: 0.1026
- AUC, modulator BJ.Co2+: 0.04311
- AUC, modulator BJ.DPQ: 0.02549
- AUC, modulator BJ.Gd3+: −0.06539
- AUC, modulator BJ.LNAME: −0.03157
- AUC, modulator BJ.Lmin/NAD+: −0.0126
- AUC, modulator BJ.Lmin: 0.01529
- AUC, modulator BJ.NAD+: 0.05051
- AUC, modulator BJ.NMMA: 0.0458
- AUC, modulator BJ.Nec-1: −0.08953
- AUC, modulator BJ.Pepstatin: 0.07672
- AUC, modulator BJ.TLCK: −0.1077
- AUC, modulator BJ.atoc: 0.0414
- AUC, modulator BJ.trolox: −0.05339
- AUC, modulator BJ.zVAD: −0.02675

Structure (SMILES): COC(C)(C)C#CC(=O)c1cccc2ccccc12 [CIL34]
- AUC, modulator BJ.3MA: 0.07701
- AUC, modulator BJ.ALLN: −0.04374
- AUC, modulator BJ.Boc D: −0.02462
- AUC, modulator BJ.CHX: 0.1215
- AUC, modulator BJ.Co2+: 0.07311
- AUC, modulator BJ.DPQ: 0.03951
- AUC, modulator BJ.Gd3+: −0.032
- AUC, modulator BJ.LNAME: −0.01631
- AUC, modulator BJ.Lmin/NAD+: 0.04257
- AUC, modulator BJ.Lmin: −0.0234
- AUC, modulator BJ.NAD+: −0.004372
- AUC, modulator BJ.NMMA: 0.03326
- AUC, modulator BJ.Nec-1: −0.03852
- AUC, modulator BJ.Pepstatin: 0.04418
- AUC, modulator BJ.TLCK: −0.1073
- AUC, modulator BJ.atoc: 0.05781
- AUC, modulator BJ.trolox: 0.007029
- AUC, modulator BJ.zVAD: 0.005997

Structure (SMILES): CCCCNc1c(Cl)cnn(-c2ccccc2)c1=O [CIL36]
- AUC, modulator BJ.3MA: 0.06295
- AUC, modulator BJ.ALLN: −0.03236
- AUC, modulator BJ.Boc D: −0.0473
- AUC, modulator BJ.CHX: −0.03087
- AUC, modulator BJ.Co2+: −0.03647
- AUC, modulator BJ.DPQ: 0.1393
- AUC, modulator BJ.Gd3+: 0.01469
- AUC, modulator BJ.LNAME: 0.0008728
- AUC, modulator BJ.Lmin/NAD+: −0.09403
- AUC, modulator BJ.Lmin: 0.02336
- AUC, modulator BJ.NAD+: −0.01826
- AUC, modulator BJ.NMMA: 0.03927
- AUC, modulator BJ.Nec-1: −0.1729
- AUC, modulator BJ.Pepstatin: −0.01891
- AUC, modulator BJ.TLCK: −0.04337
- AUC, modulator BJ.atoc: 0.06822
- AUC, modulator BJ.trolox: −0.02322
- AUC, modulator BJ.zVAD: 0.00966

Structure (SMILES): CN(C)CCCOS(=O)(=O)c1ccc(N2CCC(c3ccc(Cl)cc3)=N2)cc1 [CIL40]
- AUC, modulator BJ.3MA: 0.1131
- AUC, modulator BJ.ALLN: −0.02592
- AUC, modulator BJ.Boc D: −0.05607
- AUC, modulator BJ.CHX: −0.1423
- AUC, modulator BJ.Co2+: 0.03348
- AUC, modulator BJ.DPQ: 0.01887
- AUC, modulator BJ.Gd3+: −0.004738
- AUC, modulator BJ.LNAME: 0.002197
- AUC, modulator BJ.Lmin/NAD+: −0.06069
- AUC, modulator BJ.Lmin: −0.05273
- AUC, modulator BJ.NAD+: 0.005587
- AUC, modulator BJ.NMMA: 0.05461
- AUC, modulator BJ.Nec-1: 0.02442
- AUC, modulator BJ.Pepstatin: −0.01642
- AUC, modulator BJ.TLCK: −0.05358
- AUC, modulator BJ.atoc: 0.05022
- AUC, modulator BJ.trolox: 0.03943
- AUC, modulator BJ.zVAD: 0.007977

Structure (SMILES): N/C(=N\OC(=O)C12CC3CC(CC(C3)C1)C2)c1ccccc1 [CIL41]
- AUC, modulator BJ.3MA: 0.117
- AUC, modulator BJ.ALLN: −0.08211
- AUC, modulator BJ.Boc D: −0.06374
- AUC, modulator BJ.CHX: −0.0571
- AUC, modulator BJ.Co2+: −0.02378
- AUC, modulator BJ.DPQ: 0.02161
- AUC, modulator BJ.Gd3+: −0.006767
- AUC, modulator BJ.LNAME: 0.00307
- AUC, modulator BJ.Lmin/NAD+: 0.1504
- AUC, modulator BJ.Lmin: 0.2032
- AUC, modulator BJ.NAD+: −0.0198
- AUC, modulator BJ.NMMA: 0.04219
- AUC, modulator BJ.Nec-1: 0.09368
- AUC, modulator BJ.Pepstatin: −0.03128
- AUC, modulator BJ.TLCK: −0.02463
- AUC, modulator BJ.atoc: 0.2729
- AUC, modulator BJ.trolox: 0.1871
- AUC, modulator BJ.zVAD: 0.03607
- EC50 (DMSO): 3.17 µM
- EC50 (cotreated with Lmim_NAD): 22.6 µM
- EC50 (cotreated with antioxidant Trolox): 23.2 µM
- EC50 (cotreated with antioxidant atoc): 36.6 µM
- EC50 (cotreated with iron-chelator Lmim): 22.4 µM

From US10947188B2, “Small molecule ferroptosis inducers” (THE TRUSTEES OF COLUMBIA UNIVERSITY IN THE CITY OF NEW YORK, priority 2016, dated 2021)
